Test results reported in ChEMBL document CHEMBL3120106, “Novel compounds lowering the cellular isoform of the human prion protein in cultured human cells” (Bioorg Med Chem, 2014).
Activity calls are given as the source filed them. The calls are words filed in the database; no cut-off is given here.

How the values were obtained:
[1] = Cmax in CD-1 mouse brain at 10 mg/kg, po administered via gavage as single dose by LC/MS/MS analysis; assay type: ADME, organism-based; parameters: dose 10 mg/kg, route oral
[2] = Metabolic stability in mouse liver microsomes assessed as compound remaining at 1 uM after 60 mins by LC/MS/MS analysis; assay type: ADME, Microsome; settings: 1 h
[3] = Cmax in CD-1 mouse plasma at 10 mg/kg, po administered via gavage as single dose by LC/MS/MS analysis; assay type: ADME, organism-based; parameters: dose 10 mg/kg, route oral
[4] = Cmax in CD-1 mouse brain at 10 mg/kg, ip administered as single dose by LC/MS/MS analysis; assay type: ADME, organism-based; parameters: dose 10 mg/kg, route intraperitoneal
T98G [5] = experiment: cells; settings: Homo sapiens, 48 h
T98G [6] = experiment: Cytotoxicity against human T98G cells assessed as decrease in cell viability after 2 days by calcein AM assay; assay type: cell-based; settings: 48 h, read-out: LC50 (the source's name)
Liver microsome [7] = experiment: Metabolic stability in human liver microsomes assessed as compound remaining at 1 uM after 60 mins by LC/MS/MS analysis; assay type: ADME; settings: 1 h
[8] = Half life in mouse liver microsomes at 1 uM by LC/MS/MS analysis; assay type: ADME, Microsome
Liver microsome [9] = experiment: Half life in human liver microsomes at 1 uM by LC/MS/MS analysis; assay type: ADME
[10] = Cytotoxicity against mouse N2a-cl3 cells assessed as cell viability after 2 days by calcein AM assay; assay type: cell-based; settings: n2a-cl3, 48 h
[11] = Decrease in PrPc expression on mouse N2a-cl3 cell surface after 2 days by ELISA; assay type: functional, cell-based

Compound | Cmax [1] | Stability [2] | Cmax [3] | Cmax [4] | EC50 (T98G [5]) | CC50 (T98G [6]) | Stability (Liver microsome [7]) | t1/2 [8] | t1/2 (Liver microsome [9]) | Activity [10] | inhibition [11]
O=C(Cc1ccc(-c2ccccc2)cc1)NCc1ccccc1 | < 100 nM | 5.8% | < 100 nM | ≤ 16200 nM | 440 nM | > 10000 nM | 4.6% | 18.5 min | 10.3 min | – | –
O=C(Nc1ccncc1)C1CCCN1S(=O)(=O)c1ccc2ccccc2c1 (configuration not stated) | < 100 nM | – | < 100 nM | ≤ 16200 nM | 1520 nM | – | – | – | – | – | –
CCN(CC)c1ccc2c(c1)OC(N)=C(C#N)C2c1ccccc1 (configuration not stated) | < 100 nM | – | < 100 nM | ≤ 16200 nM | 170 nM | – | – | – | – | – | –
O=C(Cc1ccc(Cl)cc1)NCc1ccccc1 | – | – | – | – | > 10000 nM | > 10000 nM | – | – | – | – | –
Cc1cc(C)c(S(=O)(=O)NCc2ccncc2)c(C)c1 | < 100 nM | – | < 100 nM | ≤ 16200 nM | 4130 nM | – | – | – | – | – | –
COc1cc(OC)cc(C(=O)Nc2ccc(I)cn2)c1 | < 100 nM | – | < 100 nM | ≤ 16200 nM | 1310 nM | – | – | – | – | Non-toxic | Active
CCOc1ccccc1C1C(C#N)=C(N)Oc2cc(N(C)C)ccc21 (configuration not stated) | < 100 nM | 0.1% | < 100 nM | ≤ 16200 nM | – | – | 1.3% | 1.9 min | 9.7 min | – | –
CCOC(=O)c1[nH]c2c(c1C)C(=O)CC(c1ccccc1Cl)C2 (configuration not stated) | < 100 nM | – | < 100 nM | ≤ 16200 nM | 450 nM | – | – | – | – | – | –
CN(C)c1ccc2c(c1)OC(N)=C(C#N)C2c1cccs1 (configuration not stated) | – | – | – | – | 220 nM | – | – | – | – | – | –
NC(=O)c1ccccc1NC(=O)c1cccnc1N1CCCCC1 | < 100 nM | 0% | < 100 nM | ≤ 16200 nM | 1020 nM | – | 8.3% | 2.8 min | 16.7 min | Non-toxic | Active
COc1cc(C(=O)c2cc(Cl)ccc2N)cc(OC)c1OC | < 100 nM | – | < 100 nM | ≤ 16200 nM | 90 nM | – | – | – | – | – | –
N#Cc1c(NC(=O)CCc2cccs2)sc2c1CCCC2 | < 100 nM | – | < 100 nM | ≤ 16200 nM | 150 nM | – | – | – | – | – | –
CCOC(=O)c1[nH]c2c(c1C)C(=O)CC(c1ccco1)C2 (configuration not stated) | – | – | – | – | 680 nM | – | – | – | – | Non-toxic | Active
COc1cccc(N2CCN(C(=O)c3cc(C)ccc3OC)CC2)c1 | < 100 nM | 0% | < 100 nM | ≤ 16200 nM | 270 nM | – | 1% | 1.6 min | 4.5 min | – | –
CCOC(=O)c1[nH]c(C)c(C(=O)c2ccc(C)cc2)c1C | < 100 nM | – | < 100 nM | ≤ 16200 nM | 530 nM | – | – | – | – | – | –
CCOc1ccc2c(c1)C(C)=CC(C)(C)N2S(=O)(=O)c1ccc(C)cc1 | < 100 nM | – | < 100 nM | ≤ 16200 nM | 690 nM | – | – | – | – | – | –
Cc1ccn2c(-c3csc(Nc4ccc(N(C)C)cc4)n3)c(C)nc2c1 | – | – | – | – | 110 nM | – | – | – | – | – | –
CN(C)c1ccc2c(c1)OC(N)=C(C#N)C2c1ccccc1 (configuration not stated) | < 100 nM | – | < 100 nM | ≤ 16200 nM | – | – | – | – | – | – | –
